{"source": "patent US8658619B2", "about": "“Methods of treating subclinical sun damage” (priority 2010, dated 2014)", "system": "subclinical sun damage", "test": "Follow-up treatments of one patient on a substantially annual basis", "format": "in vivo, human", "details": "each time after the first treatment", "source_text": "In order to assess the scope of original treatment, one patient received further treatments over a substantially annual basis. In Table 4, treatment #, days since last treatment, and observations are provided. […] From this, it was concluded that all of the subclinical sun damage treated most likely resolved during each cycle of therapy. Subsequent milder reactions appear to have treated new subclinical sun damage or possible recurrent sun damage. […] The freckle also resolved itself after follow-up treatment #1. During follow-up treatment #2, FIG. 4C, there was no sign of the freckle. That is, where there may not have been a response during an earlier treatment, a subsequent treatment invoked a response. Moreover, responses to successive treatments, if any, were not as severe as the initial response. […] It is also concluded that annual treatment aids in preventing actinic keratoses from forming as well as eliminates any new sun damage.", "data": [{"smiles": "O=c1[nH]cc(F)c(=O)[nH]1", "note": "[5-FU, 5-fluorouracil]", "values": [{"measurement": "response in follow-up treatments", "value": "mild erythema"}]}]}
